Values quoted from earlier work in patent publication US20210322384A1, “Method of Treatment for Ketamine Infusion” (Eleusis therapeutics us, inc., priority 2018, published 2021).
Like-named read-outs stand apart in the source and are kept apart here.

Columns and labels:
patients [1] = conditions: for improvement in MADRS score relative to standard antidepressants alone: plus standard antidepressants
patients [2] = conditions: current state of the art ketamine treatments; industry standard

SMILES: CN[C@]1(c2ccccc2Cl)CCCCC1=O [esketamine]
- reduction in MADRS score relative to control group (patients [1]; after 25 days): did not result in any significant reduction
- improvement in MADRS score relative to standard antidepressants alone (patients [1]; at 24 hours after intranasal 84 mg): significantly greater improvement
- improvement in MADRS score relative to standard antidepressants alone (patients [1]; at four hours after intranasal 84 mg): significantly greater improvement
- side effects of nasal spray protocol (patients [1]; intranasal 84 mg aerosol spray): significant side effects

SMILES: CNC1(c2ccccc2Cl)CCCCC1=O (centres unmarked) [ketamine]
- response rate in alleviating depression symptoms (patients [2]): ~70%
